Laboratory results from patent US20090105270A1, “Kinase inhibition and anticancer therapy” (priority 2007, published 2009).

What was measured:
[1] = target: CHK2(h) (Homo sapiens, UniProt O96017); test: Upstate kinase activity inhibition assay CHK2(h); settings: 40 min, read-out: percentage of enzyme activity that remains
[2] = target: T1, EphA5(h) (Homo sapiens, UniProt P54756); test: Upstate kinase activity inhibition assay EphA5(h); type: biochemical; settings: 4 μM Compound E
T1 construct: purchased Upstate (KinaseProfiler service)

[3] = target: MEK1(h) (Homo sapiens, UniProt Q02750); test: Upstate kinase activity inhibition assay MEK1(h); settings: 40 min, read-out: percentage of enzyme activity that remains
Sequence of MEK1(h) (Q02750 whole entry): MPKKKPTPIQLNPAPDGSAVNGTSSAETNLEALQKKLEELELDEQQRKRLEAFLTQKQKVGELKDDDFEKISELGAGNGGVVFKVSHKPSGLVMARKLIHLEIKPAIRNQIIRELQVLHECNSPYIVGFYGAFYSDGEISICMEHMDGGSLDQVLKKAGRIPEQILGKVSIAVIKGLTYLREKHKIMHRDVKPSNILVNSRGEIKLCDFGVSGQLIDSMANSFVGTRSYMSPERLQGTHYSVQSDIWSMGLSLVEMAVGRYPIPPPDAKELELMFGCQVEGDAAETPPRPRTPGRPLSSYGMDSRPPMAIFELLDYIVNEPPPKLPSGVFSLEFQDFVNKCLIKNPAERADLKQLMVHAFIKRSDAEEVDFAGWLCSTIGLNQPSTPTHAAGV

[4] = target: T2, BTK(h) (Homo sapiens, UniProt Q06187); test: Upstate kinase activity inhibition assay BTK(h); type: biochemical
T2 construct: purchased Upstate (KinaseProfiler service)

[5] = target: MAPK1(h) (Homo sapiens, UniProt P27361); test: Upstate kinase activity inhibition assay MAPK1(h); settings: 40 min, read-out: percentage of enzyme activity that remains
[6] = target: TBK1(h) (Homo sapiens, UniProt Q9UHD2); test: Upstate kinase activity inhibition assay TBK1(h); settings: 40 min, read-out: percentage of enzyme activity that remains
[7] = target: PKCθ(h) (Homo sapiens, UniProt Q04759); test: Upstate kinase activity inhibition assay PKCθ(h); settings: 40 min, read-out: percentage of enzyme activity that remains
[8] = target: T3, EGFR(L858R)(h) (Homo sapiens, UniProt P00533, L858R); test: Upstate kinase activity inhibition assay EGFR(L858R)(h); type: biochemical; settings: 4 μM Compound E
T3 construct: purchased Upstate (KinaseProfiler service)

[9] = target: T4, CSK(h) (Homo sapiens, UniProt P41240); test: Upstate kinase activity inhibition assay CSK(h); type: biochemical
T4 construct: purchased Upstate (KinaseProfiler service)
T4 sequence (P41240 whole entry): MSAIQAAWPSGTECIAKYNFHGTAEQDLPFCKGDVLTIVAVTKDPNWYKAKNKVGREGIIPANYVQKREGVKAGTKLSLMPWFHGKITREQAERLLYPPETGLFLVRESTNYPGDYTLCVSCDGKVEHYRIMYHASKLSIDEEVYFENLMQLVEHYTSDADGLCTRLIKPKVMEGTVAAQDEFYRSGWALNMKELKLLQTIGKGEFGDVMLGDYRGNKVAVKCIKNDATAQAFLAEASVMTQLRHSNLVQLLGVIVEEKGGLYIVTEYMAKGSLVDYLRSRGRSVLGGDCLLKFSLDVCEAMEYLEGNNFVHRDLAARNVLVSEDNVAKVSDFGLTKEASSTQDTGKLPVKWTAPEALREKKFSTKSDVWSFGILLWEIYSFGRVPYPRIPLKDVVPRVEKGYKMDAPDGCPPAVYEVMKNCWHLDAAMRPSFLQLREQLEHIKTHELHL

[10] = target: MKK7β(h) (Homo sapiens, UniProt O14733); test: Upstate kinase activity inhibition assay MKK7β(h)
Sequence of MKK7β(h) (O14733 whole entry): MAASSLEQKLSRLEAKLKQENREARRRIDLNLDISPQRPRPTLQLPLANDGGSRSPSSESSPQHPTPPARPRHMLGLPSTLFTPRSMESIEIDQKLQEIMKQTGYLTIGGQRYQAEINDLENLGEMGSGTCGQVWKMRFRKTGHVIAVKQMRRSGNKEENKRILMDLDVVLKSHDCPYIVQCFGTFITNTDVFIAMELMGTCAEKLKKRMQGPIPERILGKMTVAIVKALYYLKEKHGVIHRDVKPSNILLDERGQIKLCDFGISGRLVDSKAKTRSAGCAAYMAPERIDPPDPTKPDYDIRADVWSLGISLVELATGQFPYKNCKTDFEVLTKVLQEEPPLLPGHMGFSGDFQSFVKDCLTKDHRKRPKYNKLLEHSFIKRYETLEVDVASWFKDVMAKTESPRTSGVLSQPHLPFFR

[11] = target: T5, PrKX(h) (Homo sapiens, UniProt P51817); test: Upstate kinase activity inhibition assay PrKX(h); type: biochemical; settings: 40 min; read-out: percentage of enzyme activity that remains
T5 construct: purchased Upstate (KinaseProfiler service)

[12] = target: STK33(h) (Homo sapiens, UniProt Q9BYT3); test: Upstate kinase activity inhibition assay STK33(h); settings: 40 min, read-out: percentage of enzyme activity that remains
[13] = target: T6, CDK3/cyclinE(h) (Homo sapiens, UniProt Q00526); test: Upstate kinase activity inhibition assay CDK3/cyclinE(h); type: biochemical; settings: 4 μM Compound E
T6 construct: purchased Upstate (KinaseProfiler service)

[14] = target: T7, SGK(h) (Homo sapiens, UniProt O00141, S422D); test: Upstate kinase activity inhibition assay SGK(h); type: biochemical; settings: 40 min; read-out: percentage of enzyme activity that remains
T7 construct: purchased Upstate (KinaseProfiler service)

[15] = target: IKKβ(h) (Homo sapiens, UniProt O14920); test: Upstate kinase activity inhibition assay IKKβ(h); settings: 40 min, read-out: percentage of enzyme activity that remains
[16] = target: T8, PTK5(h) (Homo sapiens, UniProt P42685); test: Upstate kinase activity inhibition assay PTK5(h); type: biochemical; settings: 40 min; read-out: percentage of enzyme activity that remains
T8 construct: purchased Upstate (KinaseProfiler service)
T8 sequence (P42685 whole entry): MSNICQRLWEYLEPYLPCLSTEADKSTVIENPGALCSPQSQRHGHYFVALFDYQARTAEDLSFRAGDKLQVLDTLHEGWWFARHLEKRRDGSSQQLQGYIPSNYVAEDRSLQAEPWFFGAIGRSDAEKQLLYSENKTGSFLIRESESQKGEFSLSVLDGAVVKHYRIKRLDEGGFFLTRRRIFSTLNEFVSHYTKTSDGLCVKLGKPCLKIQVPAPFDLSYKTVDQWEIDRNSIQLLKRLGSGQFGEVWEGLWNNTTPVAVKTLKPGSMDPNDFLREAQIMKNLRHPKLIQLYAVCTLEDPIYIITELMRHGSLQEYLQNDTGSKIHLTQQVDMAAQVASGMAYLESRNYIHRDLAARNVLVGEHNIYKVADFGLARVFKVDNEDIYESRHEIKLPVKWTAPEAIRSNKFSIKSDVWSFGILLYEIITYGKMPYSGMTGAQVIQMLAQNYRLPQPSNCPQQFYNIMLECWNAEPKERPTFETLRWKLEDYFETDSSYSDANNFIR

[17] = target: T9, CDK9/cyclin T1(h) (Homo sapiens, UniProt P50750); test: Upstate kinase activity inhibition assay CDK9/cyclin T1(h); type: biochemical; settings: 40 min; read-out: percentage of enzyme activity that remains
T9 construct: purchased Upstate (KinaseProfiler service)

[18] = target: SRPK2(h) (Homo sapiens, UniProt P78362); test: Upstate kinase activity inhibition assay SRPK2(h); settings: 40 min, read-out: percentage of enzyme activity that remains
Sequence of SRPK2(h) (P78362 whole entry): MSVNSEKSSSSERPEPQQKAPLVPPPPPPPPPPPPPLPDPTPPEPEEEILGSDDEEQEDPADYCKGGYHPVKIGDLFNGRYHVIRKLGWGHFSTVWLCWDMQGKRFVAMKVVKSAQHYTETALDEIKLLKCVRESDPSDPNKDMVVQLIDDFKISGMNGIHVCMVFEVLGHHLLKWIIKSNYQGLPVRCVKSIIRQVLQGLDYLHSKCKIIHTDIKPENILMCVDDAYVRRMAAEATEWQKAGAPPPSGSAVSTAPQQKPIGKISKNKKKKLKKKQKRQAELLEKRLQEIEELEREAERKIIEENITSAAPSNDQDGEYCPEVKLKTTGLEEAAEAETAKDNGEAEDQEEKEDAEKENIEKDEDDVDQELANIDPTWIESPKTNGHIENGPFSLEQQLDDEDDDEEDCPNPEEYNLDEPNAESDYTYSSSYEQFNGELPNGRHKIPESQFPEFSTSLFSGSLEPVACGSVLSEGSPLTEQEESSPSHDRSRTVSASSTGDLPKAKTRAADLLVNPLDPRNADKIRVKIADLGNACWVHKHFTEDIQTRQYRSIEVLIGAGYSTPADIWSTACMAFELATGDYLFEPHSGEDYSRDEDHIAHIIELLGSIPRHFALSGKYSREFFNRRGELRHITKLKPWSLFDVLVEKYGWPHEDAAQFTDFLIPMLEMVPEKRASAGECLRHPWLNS

[19] = target: T10, Lyn(h) (Homo sapiens, UniProt P07948); test: Upstate kinase activity inhibition assay Lyn(h); type: biochemical; settings: 40 min; read-out: percentage of enzyme activity that remains
T10 construct: purchased Upstate (KinaseProfiler service)
T10 sequence (P07948 whole entry): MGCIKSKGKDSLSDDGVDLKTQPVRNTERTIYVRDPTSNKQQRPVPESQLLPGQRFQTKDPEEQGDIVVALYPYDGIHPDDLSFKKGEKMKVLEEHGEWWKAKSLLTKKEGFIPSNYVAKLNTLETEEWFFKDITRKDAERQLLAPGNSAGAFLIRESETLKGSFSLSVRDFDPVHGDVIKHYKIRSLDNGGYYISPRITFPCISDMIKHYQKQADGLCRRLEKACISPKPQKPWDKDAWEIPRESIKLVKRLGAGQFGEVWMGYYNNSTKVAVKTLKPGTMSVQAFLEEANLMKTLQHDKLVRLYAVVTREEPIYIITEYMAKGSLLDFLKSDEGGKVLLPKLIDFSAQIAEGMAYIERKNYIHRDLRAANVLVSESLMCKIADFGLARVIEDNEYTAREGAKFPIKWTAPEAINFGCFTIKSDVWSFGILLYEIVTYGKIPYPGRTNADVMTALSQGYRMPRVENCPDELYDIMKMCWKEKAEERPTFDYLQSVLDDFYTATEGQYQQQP

[20] = target: Met(h) (Homo sapiens, UniProt P08581); test: Upstate kinase activity inhibition assay Met(h)
[21] = target: PKCι(h) (Homo sapiens, UniProt P41743); test: Upstate kinase activity inhibition assay PKCι(h); type: biochemical; settings: 40 min; read-out: percentage of enzyme activity that remains
[22] = target: T11, PKG1α(h) (Homo sapiens, UniProt Q13976); test: Upstate kinase activity inhibition assay PKG1α(h); type: biochemical; settings: 40 min; read-out: percentage of enzyme activity that remains
T11 construct: purchased Upstate (KinaseProfiler service)

[23] = target: T12, JAK2(h) (Homo sapiens, UniProt O60674); test: Upstate kinase activity inhibition assay JAK2(h); type: biochemical
T12 construct: purchased Upstate (KinaseProfiler service)
T12 sequence (O60674 whole entry): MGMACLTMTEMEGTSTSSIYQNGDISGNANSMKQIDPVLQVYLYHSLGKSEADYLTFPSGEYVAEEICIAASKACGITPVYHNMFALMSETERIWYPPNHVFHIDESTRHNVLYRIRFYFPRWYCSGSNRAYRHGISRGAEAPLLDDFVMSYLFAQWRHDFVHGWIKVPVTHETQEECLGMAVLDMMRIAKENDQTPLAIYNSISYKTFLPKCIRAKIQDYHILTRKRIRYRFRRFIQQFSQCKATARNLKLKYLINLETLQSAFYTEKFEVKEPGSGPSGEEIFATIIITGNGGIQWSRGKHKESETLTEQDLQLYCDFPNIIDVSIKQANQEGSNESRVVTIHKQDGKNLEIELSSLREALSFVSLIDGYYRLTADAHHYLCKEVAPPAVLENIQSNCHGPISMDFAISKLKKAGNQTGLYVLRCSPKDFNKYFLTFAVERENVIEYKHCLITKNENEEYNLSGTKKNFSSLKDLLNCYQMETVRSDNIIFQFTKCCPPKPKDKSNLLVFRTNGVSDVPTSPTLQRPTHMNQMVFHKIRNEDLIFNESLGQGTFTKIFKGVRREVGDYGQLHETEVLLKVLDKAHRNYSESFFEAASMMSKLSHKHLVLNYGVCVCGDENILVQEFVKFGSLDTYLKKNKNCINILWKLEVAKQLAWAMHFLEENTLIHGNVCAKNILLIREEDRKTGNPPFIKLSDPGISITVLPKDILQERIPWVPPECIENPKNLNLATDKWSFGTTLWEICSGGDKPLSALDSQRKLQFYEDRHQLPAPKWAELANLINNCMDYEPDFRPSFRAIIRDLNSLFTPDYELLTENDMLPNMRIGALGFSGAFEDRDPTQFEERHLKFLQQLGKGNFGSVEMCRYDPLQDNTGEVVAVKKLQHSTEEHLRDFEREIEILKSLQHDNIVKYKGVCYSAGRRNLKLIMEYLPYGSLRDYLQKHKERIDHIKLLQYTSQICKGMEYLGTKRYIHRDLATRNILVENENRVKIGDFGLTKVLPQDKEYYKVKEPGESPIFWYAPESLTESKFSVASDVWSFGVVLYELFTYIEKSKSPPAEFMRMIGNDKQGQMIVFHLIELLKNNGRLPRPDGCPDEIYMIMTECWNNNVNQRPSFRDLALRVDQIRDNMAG

[24] = target: Fgr(h) (Homo sapiens, UniProt P09769); test: Upstate kinase activity inhibition assay Fgr(h); settings: 40 min, read-out: percentage of enzyme activity that remains
[25] = target: PKA(h) (Homo sapiens, UniProt P17612); test: Upstate kinase activity inhibition assay PKA(h); type: biochemical; settings: 40 min; read-out: percentage of enzyme activity that remains
[26] = target: ALK4(h) (Homo sapiens, UniProt P36896); test: Upstate kinase activity inhibition assay ALK4(h); settings: 40 min, read-out: percentage of enzyme activity that remains
[27] = target: SIK(h) (Homo sapiens, UniProt P57059); test: Upstate kinase activity inhibition assay SIK(h)
Sequence of SIK(h) (P57059 whole entry): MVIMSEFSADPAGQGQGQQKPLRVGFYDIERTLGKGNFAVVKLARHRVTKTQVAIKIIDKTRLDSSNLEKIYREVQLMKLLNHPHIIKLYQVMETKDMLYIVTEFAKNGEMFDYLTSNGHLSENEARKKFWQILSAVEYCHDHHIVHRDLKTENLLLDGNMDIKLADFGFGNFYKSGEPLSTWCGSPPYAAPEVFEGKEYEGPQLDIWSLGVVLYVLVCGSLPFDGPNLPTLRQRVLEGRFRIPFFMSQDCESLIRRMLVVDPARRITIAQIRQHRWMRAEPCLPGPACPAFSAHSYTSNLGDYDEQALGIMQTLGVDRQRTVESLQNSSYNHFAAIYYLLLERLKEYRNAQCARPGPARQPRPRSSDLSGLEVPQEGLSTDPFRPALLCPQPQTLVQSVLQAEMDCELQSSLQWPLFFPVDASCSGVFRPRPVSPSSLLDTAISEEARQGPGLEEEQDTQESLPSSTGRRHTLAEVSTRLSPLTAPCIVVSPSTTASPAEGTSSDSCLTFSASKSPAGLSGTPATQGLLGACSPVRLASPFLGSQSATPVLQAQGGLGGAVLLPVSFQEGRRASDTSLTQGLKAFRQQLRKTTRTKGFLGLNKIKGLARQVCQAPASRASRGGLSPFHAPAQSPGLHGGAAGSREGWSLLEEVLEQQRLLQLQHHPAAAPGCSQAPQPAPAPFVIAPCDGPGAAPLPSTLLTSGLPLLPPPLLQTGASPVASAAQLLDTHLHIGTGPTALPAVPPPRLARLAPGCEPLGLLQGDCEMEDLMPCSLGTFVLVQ

[28] = target: T13, IRAK4(h) (Homo sapiens, UniProt Q9NWZ3); test: Upstate kinase activity inhibition assay IRAK4(h); type: biochemical; settings: 4 μM Compound E
T13 construct: purchased Upstate (KinaseProfiler service)

[29] = target: T14, PKBα(h) (Homo sapiens, UniProt P31749); test: Upstate kinase activity inhibition assay PKBα(h); type: biochemical; settings: 40 min; read-out: percentage of enzyme activity that remains
T14 construct: purchased Upstate (KinaseProfiler service)

[30] = target: Snk(h) (Homo sapiens, UniProt Q9NYY3); test: Upstate kinase activity inhibition assay Snk(h)

Cc1cc(Nc2cc(N3CCN(C)CC3)nc(Sc3ccc(NC(=O)C4CC4)cc3)n2)n[nH]1 [Compound E, Cyclopropane carboxylic acid {4-[4-(4-methyl-piperazin-1-yl)-6-(5-methyl-2H-pyrazol-3-ylamino)-pyrimidin-2-ylsulphanyl]-phenyl}-amide]
remaining activity at 0.2 µM [1]: 99% | remaining activity at 4 µM [1]: 89% | percentage of enzyme activity that remains [2]: 57% | remaining activity at 0.2 µM [3]: 115% | remaining activity at 4 µM [3]: 82% | percentage of enzyme activity that remains ([4]; 0.2 μM Compound E): 93% | percentage of enzyme activity that remains ([4]; 4 μM Compound E): 49% | remaining activity at 0.2 µM [5]: 94% | remaining activity at 4 µM [5]: 93% | remaining activity at 0.2 µM [6]: 106% | remaining activity at 4 µM [6]: 57% | remaining activity at 0.2 µM [7]: 25% | remaining activity at 4 µM [7]: 35% | percentage of enzyme activity that remains [8]: 77% | percentage of enzyme activity that remains ([9]; 0.2 μM Compound E): 108% | percentage of enzyme activity that remains ([9]; 4 μM Compound E): 87% | percentage of enzyme activity that remains ([10]; 0.2 μM Compound E): 91% | percentage of enzyme activity that remains ([10]; 4 μM Compound E): 97% | remaining activity at 0.2 µM [11]: 97% | remaining activity at 4 µM [11]: 96% | remaining activity at 0.2 µM [12]: 112% | remaining activity at 4 µM [12]: 110% | percentage of enzyme activity that remains [13]: 97% | remaining activity at 0.2 µM [14]: 113% | remaining activity at 4 µM [14]: 109% | remaining activity at 0.2 µM [15]: 106% | remaining activity at 4 µM [15]: 117% | remaining activity at 0.2 µM [16]: 97% | remaining activity at 4 µM [16]: 54% | remaining activity at 0.2 µM [17]: 80% | remaining activity at 4 µM [17]: 84% | remaining activity at 0.2 µM [18]: 122% | remaining activity at 4 µM [18]: 109% | remaining activity at 0.2 µM [19]: 45% | remaining activity at 4 µM [19]: 3% | percentage of enzyme activity that remains ([20]; 0.2 μM Compound E): 105% | percentage of enzyme activity that remains ([20]; 4 μM Compound E): 50% | remaining activity at 0.2 µM [21]: 100% | remaining activity at 4 µM [21]: 78% | remaining activity at 4 µM [22]: 89% | percentage of enzyme activity that remains ([23]; 0.2 μM Compound E): 75% | percentage of enzyme activity that remains ([23]; 4 μM Compound E): 19% | remaining activity at 0.2 µM [24]: 71% | remaining activity at 4 µM [24]: 12% | remaining activity at 0.2 µM [25]: 100% | remaining activity at 4 µM [25]: 102% | remaining activity at 0.2 µM [26]: 103% | remaining activity at 4 µM [26]: 124% | percentage of enzyme activity that remains ([27]; 0.2 μM Compound E): 95% | percentage of enzyme activity that remains ([27]; 4 μM Compound E): 61% | percentage of enzyme activity that remains [28]: 90% | remaining activity at 0.2 µM [29]: 110% | remaining activity at 4 µM [29]: 110% | percentage of enzyme activity that remains ([30]; 0.2 μM Compound E): 99% | percentage of enzyme activity that remains ([30]; 4 μM Compound E): 103%
